US12329774B2, “Method and composition for enhancing the quality and benefits of sleep” (priority 2020, dated 2025)

Assays:
[1] = tested on: caffeine-induced wakefulness mice; experiment: Caffeine-induced wakefulness mouse model: sleep latency, sleep duration, number falling asleep; assay type: in vivo; settings: caffeine-induced wake mouse; caffeine alone or + test article (20 mg theanine/kg)
Protocol: Animals and Experimental design: Seven male BALB/c mice per treatment arm (age: 8 weeks, weight: […]) were housed in a controlled environment with a 12:12-h light-dark cycle at 22° C. and were provided with mice chow and water ad libitum. All experiments were conducted under the National Institutes of Health's Guidelines for the Care and Use of Laboratory Animals and approved by the Ethics Committee of the Medipol University.
Drugs and materials: Study product was provided by Nutrition21 LLC (Mg-Theanate #1=lot AA209-122-20, Mg-Theanate #2=lot BLS-DN 13). […] The concentration of each drug solution was adjusted so that the volume injected was constant at 1.0 ml/kg BW. All drug solutions were prepared fresh daily, and were administered intraperitoneally (i.p.). […]

[2] = tested on: brain waves (spike amplitude / spike frequency); experiment: Electrocorticography (ECoG) of brain electrical activity in caffeine-induced wakefulness mice; assay type: in vivo; settings: caffeine-induced wake mouse; electrical activity over 120 minutes; result in words; listed as Theanine
Protocol: Animals were anesthetized with urethane ([…], i.p., Sigma U2500). Body temperature was maintained between 36.5 and 37° C. with homeothermic blanket. Mice were stabilized under a stereotaxic frame (World Precision Instruments, Berlin; Germany) and an incision was made on the skin along the anterior/posterior line of the skull. The left […] was removed gently with a dental drill (Marothon-3; Korea). Two Ag—AgCl sphere electrodes were placed over the left hemisphere with the reference electrode attached on the pinna.
Brains were rapidly removed, frozen on dry ice and stored at −80° C. until analyses could be performed.

[3] = tested on: brain serotonin, dopamine and melatonin; experiment: Brain neurotransmitter levels by ELISA in caffeine-induced wakefulness mice; assay type: in vivo; settings: for Dopamine / Melatonin / Serotonin: brain, caffeine followed by saline (C) or test article (20 mg theanine/kg), ELISA, means and standard deviations
MDA, SOD, CAT, GSHPx = experiment: Brain antioxidant status in caffeine-induced wakefulness mice; assay type: in vivo; settings: for CAT / GSHPx / MDA / SOD: caffeine followed by saline (C) or test article (20 mg theanine/kg), means and standard deviations
Protocol: Animals were anesthetized with urethane ([…], i.p., Sigma U2500). Body temperature was maintained between 36.5 and 37° C. with homeothermic blanket. Mice were stabilized under a stereotaxic frame (World Precision Instruments, Berlin; Germany) and an incision was made on the skin along the anterior/posterior line of the skull. The left […] was removed gently with a dental drill (Marothon-3; Korea). Two Ag-AgCl sphere electrodes were placed over the left hemisphere with the reference electrode attached on the pinna. […] Brains were rapidly removed, frozen on dry ice and stored at -80° C. until analyses could be performed. Biochemical and Oxidative Stress Markers-Serum melatonin, serotonin, and dopamine were measured using ELISA kits. Brain levels of malondialdehyde (MDA) were measured by HPLC. Brain activities of superoxide dismutase (SOD), catalase (CAT) and glutathione peroxidase (GSHPx) were measured using ELISA kits for each analyte.

[4] = tested on: pentobarbital-induced sleep; experiment: Pentobarbital-induced sleep test mouse model; assay type: in vivo, mice; settings: for Duration of sleep / Sleep latency period: pentobarbital 42 mg/kg, test article 20 mg theanine/kg per os 45 min before, result in words
Protocol: Subsequently, pentobarbital was administered intraperitoneally to induce a hypnotic state that promoted sleep. The effects on sleep of the test agents were monitored.
Pentobarbital-induced sleep was performed according to published methods with slight modifications. Mice were fasted for 24 h prior to the experiment. Each test article was dissolved or suspended in physiological saline and then was administered per os. The groups were administered doses of 20 mg/kg theanine, Mg-theanate #1 (20 mg theanine/kg), and Mg-theanate #2 (20 mg theanine/kg), respectively. Forty-five minutes later, a hypnotic dose of pentobarbital (42 mg/kg) was injected into the left side of the abdomen. After injection, the mice were placed in individual cages and subjected to measurements of sleep latency and duration. Sleep latency was defined as the period between pentobarbital injection and the loss of righting reflex (sleep onset), and sleep duration denoted the time elapsed between loss of the righting reflex and recovery.
Statistical Analyses—Data are shown as mean±SEM. Sample size was calculated based on a power of 85% and a p-value of 0.05. Given that assumption, a sample size of seven per treatment was calculated. The data were analyzed using the GLM procedure of SAS (SAS Institute: SAS User's Guide: Statistics). The treatments were compared using ANOVA and Student's unpaired t-test; P<0.05 was considered statistically significant.

[5] = Nathan [17]; cited from earlier work
sleep cycle = settings: Jang et al. [11], cited from earlier work
[6] = tested on: stimulatory action of caffeine; settings: rats, EEG, Kakuda et al. [13]; cited from earlier work
[7] = tested on: Bax, Bcl-2, Caspase-3, eNOS, iNOS; experiment: Western blot of brain cell survival indicators in caffeine-induced wakefulness mice; settings: caffeine-induced wake mouse; result in words; listed as Theanine
[8] = 500 mg magnesium daily, 8 weeks, cited from earlier work
[9] = Ates et al. [2]; comparison in words; cited from earlier work
wakefulness = settings: 7.5 mg/kg i.p.; Kwon et al., 2006; cited from earlier work
[10] = caffeine-induced wake mouse model, 20 mg/kg
[11] = caffeine-induced wake mouse, result in words

| Compound | Dopamine [3] | Melatonin [3] | Serotonin [3] | CAT (MDA, SOD, CAT, GSHPx) | GSHPx (MDA, SOD, CAT, GSHPx) | MDA (MDA, SOD, CAT, GSHPx) | SOD (MDA, SOD, CAT, GSHPx) | Absorption (and bioavailability) of magnesium [9] | further results |
| --- | --- | --- | --- | --- | --- | --- | --- | --- | --- |
| CCNC(=O)CCC(N)C(=O)O (stereo not shown) [CT, 2-amino-4-(ethylcarbamoyl)-butyric acid, reference compound] | 779.00 + 77.73c ng/g | 0.69 + 0.08c pg/g | 655.43 + 35.46c ng/g | 29.51 + 2.06c IU/mg protein | 15.56 + 7.94ab IU/mg protein | 2.46 + 0.17b nmol/g | 117.14 + 13.89c IU/mg protein | – | Number of animals falling asleep (share of the group that fell asleep) [1]: + Theanine: 62.5% of the group fell asleep; Sleep latency period [1]: + Theanine: The sleep latency period increased from about 1 to about 1.5 minute, a minutes; Amplitude of brain waves [2]: + Theanine: Within about 30 minutes, the amplitude of brain waves increased significantly; Spike frequency of electrical activity in the brain [2]: significantly reduced, as compared to caffeine-treated animals.; Levels of protective enzymes (SOD, CAT, GSHPx) (MDA, SOD, CAT, GSHPx; caffeine-induced wake mouse, result in words, listed as Theanine): decreased, but the changes were not as great as those shown by caffeine treatment.; Animals that failed to sleep during the 10-minute period following pentobarbital administration ([4]; 20 mg/kg per os): About 62%; Duration of sleep [4]: significantly increased; Sleep latency period [4]: significantly reduced; Duration of sleep ([4]; listed as L-theanine): significantly increased; Sleep latency period ([4]; listed as L-theanine): significantly decreased; Time to cross the blood-brain barrier after oral administration [5]: ≤ 30 min; REM time during the sleep cycle (sleep cycle; [10]): increases; Sleep latency (sleep cycle; [10]): significantly decrease; Sleep time (sleep cycle; [10]): increase; NREM time, chronic administration (sleep cycle; chronic administration): significant increase; NREM time, single doses (sleep cycle; single doses): little effect; Intravenous dose that could inhibit the stimulatory action of caffeine [6]: higher than 0.78 mg/kg; Brain cell survival (Bax, Bcl-2, Caspase-3, eNOS, and iNOS, indicators of cell damage) [7]: + Theanine: Administration of theanine caused trends toward normalization of these |
| CCNC(=O)CCC(N)C(=O)O [CMgT1, magnesium di-L-theanate] | 832.71 + 74.50bc ng/g | 0.80 + 0.03b pg/g | 762.29 + 25.34b ng/g | 36.47 + 1.27b IU/mg protein | – | 2.24 + 0.14c nmol/g | 131.14 + 9.86b IU/mg protein | – | – |
| [Mg+2] [magnesium] | – | – | – | – | – | – | – | – | Concentration of serum renin vs placebo ([8]; P<0.001): statistically significant increases; Sleep time vs placebo ([8]; P=0.002): statistically significant increases; Concentration of melatonin vs placebo ([8]; P=0.007): statistically significant increases; Sleep efficiency vs placebo ([8]; P=0.03): statistically significant increases; Early morning wakening time [8]: shortened; Insomnia Severity Index scores ([8]; subjective measure): improved |
| O=C([O-])CC(O)C(=O)[O-].[Mg+2] (stereo not shown) [magnesium malate] | – | – | – | – | – | – | – | more poorly absorbed than certain magnesium complexes with amino acids | – |
| CCNC(=O)CCC(N)C(=O)O [CMgT2, magnesium di-L-theanate] | 895.57 + 61.93ab ng/g | 0.85 + 0.04b pg/g | 751.43 + 30.34b ng/g | 35.96 + 2.52b IU/mg protein | 19.11 + 2.39ab IU/mg protein | 2.24 + 0.09c nmol/g | 137.29 + 5.99b IU/mg protein | – | – |
| magnesium acetyl taurate | – | – | – | – | – | – | – | significantly better absorption and bioavailability than magnesium glycinate | – |
| magnesium citrate | – | – | – | – | – | – | – | more poorly absorbed than certain magnesium complexes with amino acids | – |
| Cn1c(=O)c2c(ncn2C)n(C)c1=O [C, Caffeine, reference compound] | 584.86 + 72.47d ng/g | 0.59 + 0.05a pg/g | 571.00 + 42.14d ng/g | 24.40 + 1.62a IU/mg protein | 12.07 + 2.89b IU/mg protein | – | 89.00 + 5.16a IU/mg protein | – | Number of animals falling asleep (share of the group that fell asleep) [1]: Caffeine: only 50% of the group fell asleep; Sleep latency period [1]: Caffeine: The sleep latency period doubled to about 2 minutes in caffeine-treated animals.; Neurotransmitter levels (brain serotonin, dopamine, and melatonin) [3, 11]: Caffeine: Levels of all three neurotransmitters were significantly reduced, reflecting the; Level of MDA (indicator of oxidative stress) (MDA, SOD, CAT, GSHPx; [11]): Caffeine: The level of MDA (an indicator of oxidative stress) was significantly increased,; Time for which wakefulness is maintained (wakefulness): at least 2 h |
